According to patent US12208077B2, “Synergistic composition for potentiating stabilized ATP” (CELAGENEX RESEARCH (INDIA) PVT. LTD., priority 2021, dated 2025):

Experiments:
HepG2 cells = test: Estimation of cellular ATP levels in HepG2 cells (BioVision kit); format: cell-based, human; details: 24 hr treatment, amount of each test substance as in the group name (Table 1/3)
Procedure: In vitro evaluation of the modulatory potential of the test substances on cellular ATP levels in (HepG2) human Hepatocellular carcinoma cell line.
(§1) About 10 mg of all the test substances were dissolved separately with 1 ml DMEM-HG supplemented with 2% inactivated FBS to obtain a stock solution of 10 mg/ml concentration and sterilized by 0.22u syringe filtration. Diluted the stock to desired concentration for carrying out further studies.
(§2) Cell line HepG2 was procured from NCCS (National Center for Cell Sciences), Pune, and was cultured in DMEM-HG supplemented with 10% inactivated Fetal Bovine Serum (FBS), penicillin (100 IU/ml), streptomycin (100 μg/ml) and amphotericin B (5 μg/ml) in a humidified atmosphere of 5% CO2 at 37° C. until confluent. The cells were dissociated with TPVG solution (0.2% trypsin, 0.02% EDTA, 0.05% glucose in PBS). The stock cultures were grown in 25 cm^2 culture flasks and all experiments were carried out in 96 well microtitre plates (Tarsons India Pvt. Ltd., Kolkata, India).
HepG2 cells were trypsinized from stock culture flasks and the cell count was adjusted to 1.0×10^5cells/ml, the cell suspension was seeded into a 96-well plate. After 24 hr, cell cultures with 70-80% confluency, cells were treated with different non-toxic concentrations of test substances. After 24 hr of treatment, the plate was washed with phosphate buffer saline. The cellular ATP levels determination was performed according to the instruction given in the kit manual (BioVision, #K354-100). At the end of the experiment, the optical density was read at 570 nm using microplate reader. From the absorbance values, the cellular ATP levels were estimated using kit protocol and the concentration of cellular ATP levels in treated groups were determined in comparison to the control groups.

[1] = cited from earlier work
[2] = cited from earlier work; remark: listed apart in the source
erythrocytes = details: humans; after 24 h of continuous infusion; dose-dependent; cited from earlier work
MS-related fatigue = details: treatment of MS-related fatigue; cited from earlier work
[3] = test system: Patients with hepatic encephalopathy (HE); details: patients with hepatic encephalopathy treated with ALCAR; cited from earlier work
HepG2 cell line = test: In vitro cytotoxicity by MTT assay on HepG2 cell line; format: cell-based, human; details: Homo sapiens, concentration needed to inhibit growth of the cell by 50%, 24 h, read-out: CTC50
Procedure: (§3) The in vitro cytotoxicity was performed on HepG2 (Human Hepatocellular Carcinoma) cell line to find the non-toxic concentrations of the test substances by MTT assay and evaluate their modulatory potential on cellular ATP levels
as §1, §2
(§4) The monolayer cell culture was trypsinized and the cell count was adjusted to 1.0×10^5cells/ml using DMEM-HG containing 10% FBS. To each well of the 96 well microtitre plate, 0.1 ml of the diluted cell suspension was added. After 24 h, when a partial monolayer was formed, the supernatant was flicked off, the monolayer was washed once with medium and 100 μl of different concentrations of test substances were added. The plate was then incubated at 37° C. for 24 h in a 5% CO2 atmosphere, and microscopic examination was carried out and observations were noted after 24 h time.
(§5) After 24 h of incubation, the drug solutions in the wells were discarded and 50 μl of MTT in DPBS was added to each well. The plate was gently shaken and incubated for 3 h at 37° C. in a 5% CO2 atmosphere. The supernatant was removed and 100 μl of 2-propanol was added and the plate was gently shaken to solubilize the formed formazan. The absorbance was measured using a microplate reader at a wavelength of 570 nm. The percentage growth inhibition was calculated using the standard formula. The concentration of test substances, needed to inhibit the growth of the cell by 50% i.e., CTC50 values were generated from the dose-response curves

[4] = as above; format: cell-based, human; details: human, HepG2 cells; for cytotoxicity at 24 h, 62.5 μg/mL: Test Conc. 62.5 μg/mL; for cytotoxicity at 24 h, 125 μg/mL: Test Conc. 125 μg/mL; for cytotoxicity at 24 h, 250 μg/mL: Test Conc. 250 μg/mL; for cytotoxicity at 24 h, 500 μg/mL: Test Conc. 500 μg/mL; for cytotoxicity at 24 h, 1000 μg/mL: Test Conc. 1000 μg/mL; for cytotoxicity at 24 h, 2000 μg/mL: Test Conc. 2000 μg/mL; for cytotoxicity at 24 h, 3000 μg/mL: Test Conc. 3000 μg/mL; for cytotoxicity at 24 h, 4000 μg/mL: Test Conc. 4000 μg/mL; for cytotoxicity at 24 h, 5000 μg/mL: Test Conc. 5000 μg/mL
Procedure: as §3, §1, §2, §4, §5

Structure (SMILES) | Cellular ATP (HepG2 cells) [nM] | Percentage enhancement of cellular ATP levels over cell control (HepG2 cells) [%] | half-life of infused ATP [1] | stability in acidic conditions [2] | increase of ATP concentrations in erythrocytes (erythrocytes) [%] | efficacy compared with amantadine (MS-related fatigue) | physical activity [3] | severity of mental and physical fatigue [3] | IC50 (HepG2 cell line) [µg/mL] | cytotoxicity at 24 h, 62.5 μg/mL [4] [%] | cytotoxicity at 24 h, 125 μg/mL [4] [%] | cytotoxicity at 24 h, 250 μg/mL [4] [%] | cytotoxicity at 24 h, 500 μg/mL [4] [%] | cytotoxicity at 24 h, 1000 μg/mL [4] [%] | cytotoxicity at 24 h, 2000 μg/mL [4] [%] | cytotoxicity at 24 h, 3000 μg/mL [4] [%] | cytotoxicity at 24 h, 4000 μg/mL [4] [%] | cytotoxicity at 24 h, 5000 μg/mL [4] [%]
OO [Composition H2O2, H2O2, reference compound] | 22.35 ± 0.48 | −38.40 | – | – | – | – | – | – | – | – | – | – | – | – | – | – | – | –
Nc1ncnc2c1ncn2[C@@H]1O[C@H](COP(=O)(O)OP(=O)(O)OP(=O)(O)O)[C@@H](O)[C@H]1O [ATP, Adenosine triphosphate] | 119.88 ± 0.45 | 230.33 | less than one | quickly decompose | ~60 | – | – | – | – | – | – | – | – | – | – | – | – | –
CC(=O)O[C@H](CC(=O)O)C[N+](C)(C)C [N-Acetyl L carnitine, (3R)-3-acetyloxy-4-(trimethylazaniumyl) butanoate] | 39.92 ± 0.45 | 10.00 | – | – | – | more effective | increase | decrease | > 5000 | 0.982 ± 0.876 | 0.546 ± 0.408 | 1.31 ± 0.134 | 1.69 ± 0.204 | 2.46 ± 1.58 | 2.62 ± 0.964 | 3 ± 0.736 | 5.18 ± 2.68 | 32.6 ± 2.55
CC(=O)NCCS(=O)(=O)O [Magnesium Acetyl Taurate, magnesium; 2-acetamidoethanesulfonate; dihydrate] | 56.28 ± 0.56 | 55.07 | – | – | – | – | – | – | > 5000 | 1.31 ± 0.231 | 1.25 ± 0.91 | 1.75 ± 0.43 | 1.53 ± 0.408 | 1.36 ± 0.967 | 6.55 ± 0.482 | 3.71 ± 1.34 | 6.17 ± 2.39 | 12.2 ± 1.56
